Test results published in patent US20230021483A1, “[…] […] METHOD AND CLASSIFICATION OF PHARMACEUTICAL COMPONENTS BY USING TRANSCRIPTOMES” (National Institutes of Biomedical Innovation, Health and …, priority 2016, published 2023).

Tested on: preferentially upregulated genes in LV, SP, LN
Assay: Z-score-based differential gene expression analysis (adjuvant group- or adjuvant-associated genes, 40 module mapping, TargetMine annotation)
Assay type: in vivo, C57BL/6 mice
Design: key to z sum, 1458589_at ---: sum of the per-gene fold-change z-scores of the triplicate samples
Settings: for Adar 1425405_a_at (Group G1, Modules 20) / Adar 1434268_at (Group G1, Modules 20) / Ddx58 1436562_at (Group G1, Modules 20) / Ddx58 1456890_at (Group G1, Modules 20) / Eif2ak2 1422005_at (Group G1, Modules 20) / G3bp2 1421323_a_at (Group G1, Modules 20) / Gm9706///Isg15 1431591_s_at (Group G1, Modules 20) / H2-T10///H2-T22///H2-T9 1449875_s_at (Group G1, Modules 20) / Ifih1 1426276_at (Group G1, Modules 20) / Ifit1 1450783_at (Group G1, Modules 20) / Ifit3 1449025_at (Group G1, Modules 20) / Irf7 1417244_a_at (Group G1, Modules 20) / Irgm1 1418825_at (Group G1, Modules 20) / Mndal 1426906_at (Group G1, Modules 20) / Pml 1448757_at (Group G1, Modules 20) / Pml 1456103_at (Group G1, Modules 20) / Rnf213 1455500_at (Group G1, Modules 20) / Rsad2 1436058_at (Group G1, Modules 20) / Shisa5 1423986_a_at (Group G1, Modules 20) / Shisa5 1437503_a_at (Group G1, Modules 20) / Stat1 1450033_a_at (Group G1, Modules 20) / Stat1 1450034_at (Group G1, Modules 20) / Tdrd7 1426716_at (Group G1, Modules 20) / Tor1aip2 1418115_s_at (Group G1, Modules 20) / Tor1aip2 1418116_at (Group G1, Modules 20) / Tor1aip2 1435526_at (Group G1, Modules 20) / Trim12a 1437432_a_at (Group G1, Modules 20) / Uba7 1426970_a_at (Group G1, Modules 20): LV
Method in brief: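 Gene groups for each organ were built from combined z-score cutoffs across adjuvants, ranging from z>1 to z>3. Scores came from fold changes standardized per gene over the whole organ data set, with the three replicate z-scores added per adjuvant; sums above 3 marked preferential expression.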

## Nc1nc2c(ncn2[C@@H]2O[C@@H]3COP(=O)(O)O[C@H]4[C@@H](O)[C@H](n5cnc6c(N)ncnc65)O[C@@H]4COP(=O)(O)O[C@@H]2[C@@H]3O)c(=O)[nH]1 [cGAMP, Cyclic [G(2′,5′)pA(3′,5′)p]]
ID, LN, Modules 26
  z sum, 1428027_at LOC100653389: −1.72
ID, LN, Modules 27
  z sum, 1419721_at Niacr1: −2.05
ID, LN, Modules 29
  z sum, 1418424_at Tnfaip6: −2.05
  z sum, 1419534_at Olr1: −2.35
  z sum, 1421457_a_at Samsn1: −1.88
  z sum, 1422305_at Ifnb1: −1.97
  z sum, 1423028_at Ifna2: −1.92
  z sum, 1425837_a_at Ccrn4l: −2.11
  z sum, 1436387_at C330006P03Rik///Homer1: −1.73
  z sum, 1439349_at Sbno2: −2.1
  z sum, 1444010_at Eif4e: −1.99
  z sum, 1448325_at Ppp1r15a: −2.32
  z sum, 1449311_at Bach1: −1.95
  z sum, 1450297_at Il6: −2.07
  z sum, 1455197_at Rnd1: −2.12
  z sum, 1455899_x_at Socs3: −2.14
ID, LN, Modules 34
  z sum, 1417252_at Ptgs2: −2.41
  z sum, 1417263_at Ptgs2: −2.18
  z sum, 1419132_at Tfr2: −1.86
  z sum, 1421473_at Il1a: −2.25
ID, LN, Modules 35
  z sum, 1439981_at Tespa1: −2.15
  z sum, 1441843_s_at 5230400M03Rik: −1.71
  z sum, 1442556_at ---: −1.95
  z sum, 1443414_at C78513: −1.91
  z sum, 1444598_at ---: −1.93
  z sum, 1445534_at ---: −1.93
  z sum, 1446245_at ---: −1.58
  z sum, 1457944_at ---: −1.78
  z sum, 1458376_at B930025B16Rik: −1.85
  z sum, 1459144_at ---: −1.91
ID, LN, Modules 36
  z sum, 1425687_at Cflar: −2.21
  z sum, 1427736_a_at Ccrl2: −1.74
  z sum, 1449169_at Has2: −1.67
  z sum, 1453636_at Pcgf5: −1.86
  z sum, 1457888_at ---: −1.91
ID, LN, Modules 37
  z sum, 1419508_at Ripk1: −1.9
  z sum, 1421578_at Ccl4: −2.14
  z sum, 1421679_a_at Cdkn1a: −1.99
  z sum, 1424638_at Cdkn1a: −2.22
  z sum, 1433508_at Klf6: −2.41
  z sum, 1434350_at Csrnp1: −1.97
  z sum, 1439680_at Tnfsf10: −1.65
  z sum, 1448724_at Cish: −2.38
  z sum, 1451340_at Arid5a: −1.67
  z sum, 1453851_a_at Gadd45g: −1.96
  z sum, 1457404_at Nfkbiz: −1.92
  z sum, 1458589_at ---: −2.36
ID, LN, Modules 40
  z sum, 1422054_a_at 5kil: −2.23
  z sum, 1428735_at Cd69: −1.52
ID, sample x1
  Adar 1425405_a_at (Group G1, Modules 20): 2.95
  Adar 1434268_at (Group G1, Modules 20): 2.22
  Ddx58 1436562_at (Group G1, Modules 20): 2.04
  Ddx58 1456890_at (Group G1, Modules 20): 2.26
  Eif2ak2 1422005_at (Group G1, Modules 20): 3.11
  G3bp2 1421323_a_at (Group G1, Modules 20): 3.19
  Gm9706///Isg15 1431591_s_at (Group G1, Modules 20): 2.13
  H2-T10///H2-T22///H2-T9 1449875_s_at (Group G1, Modules 20): 2.29
  Ifih1 1426276_at (Group G1, Modules 20): 1.73
  Ifit1 1450783_at (Group G1, Modules 20): 2.75
  Ifit3 1449025_at (Group G1, Modules 20): 2.13
  Irf7 1417244_a_at (Group G1, Modules 20): 1.6
  Irgm1 1418825_at (Group G1, Modules 20): 2.25
  Mndal 1426906_at (Group G1, Modules 20): 2.08
  Pml 1448757_at (Group G1, Modules 20): 2.13
  Pml 1456103_at (Group G1, Modules 20): 1.62
  Rnf213 1455500_at (Group G1, Modules 20): 2.58
  Rsad2 1436058_at (Group G1, Modules 20): 2.08
  Shisa5 1423986_a_at (Group G1, Modules 20): 1.7
  Shisa5 1437503_a_at (Group G1, Modules 20): 1.57
  Stat1 1450033_a_at (Group G1, Modules 20): 3.11
  Stat1 1450034_at (Group G1, Modules 20): 2.46
  Tdrd7 1426716_at (Group G1, Modules 20): 2.18
  Tor1aip2 1418115_s_at (Group G1, Modules 20): 2.9
  Tor1aip2 1418116_at (Group G1, Modules 20): 2.41
  Tor1aip2 1435526_at (Group G1, Modules 20): 2.32
  Trim12a 1437432_a_at (Group G1, Modules 20): 2.07
  Uba7 1426970_a_at (Group G1, Modules 20): 2.06
ID, sample x2
  Adar 1425405_a_at (Group G1, Modules 20): 2.38
  Adar 1434268_at (Group G1, Modules 20): 1.71
  Ddx58 1436562_at (Group G1, Modules 20): 2.13
  Ddx58 1456890_at (Group G1, Modules 20): 2.28
  Eif2ak2 1422005_at (Group G1, Modules 20): 2.21
  G3bp2 1421323_a_at (Group G1, Modules 20): 2.6
  Gm9706///Isg15 1431591_s_at (Group G1, Modules 20): 1.62
  H2-T10///H2-T22///H2-T9 1449875_s_at (Group G1, Modules 20): 1.8
  Ifih1 1426276_at (Group G1, Modules 20): 1.62
  Ifit1 1450783_at (Group G1, Modules 20): 2.63
  Ifit3 1449025_at (Group G1, Modules 20): 1.95
  Irf7 1417244_a_at (Group G1, Modules 20): 1.62
  Irgm1 1418825_at (Group G1, Modules 20): 2.09
  Mndal 1426906_at (Group G1, Modules 20): 2.11
  Pml 1448757_at (Group G1, Modules 20): 2.02
  Pml 1456103_at (Group G1, Modules 20): 1.48
  Rnf213 1455500_at (Group G1, Modules 20): 2.34
  Rsad2 1436058_at (Group G1, Modules 20): 1.89
  Shisa5 1423986_a_at (Group G1, Modules 20): 1.43
  Shisa5 1437503_a_at (Group G1, Modules 20): 1.63
  Stat1 1450033_a_at (Group G1, Modules 20): 2.52
  Stat1 1450034_at (Group G1, Modules 20): 1.97
  Tdrd7 1426716_at (Group G1, Modules 20): 2.34
  Tor1aip2 1418115_s_at (Group G1, Modules 20): 2.68
  Tor1aip2 1418116_at (Group G1, Modules 20): 2.58
  Tor1aip2 1435526_at (Group G1, Modules 20): 2.28
  Trim12a 1437432_a_at (Group G1, Modules 20): 1.46
  Uba7 1426970_a_at (Group G1, Modules 20): 1.28
ID, sample x3
  Adar 1425405_a_at (Group G1, Modules 20): 2.37
  Adar 1434268_at (Group G1, Modules 20): 1.8
  Ddx58 1436562_at (Group G1, Modules 20): 2.6
  Ddx58 1456890_at (Group G1, Modules 20): 2.38
  Eif2ak2 1422005_at (Group G1, Modules 20): 2.73
  G3bp2 1421323_a_at (Group G1, Modules 20): 2.43
  Gm9706///Isg15 1431591_s_at (Group G1, Modules 20): 1.73
  H2-T10///H2-T22///H2-T9 1449875_s_at (Group G1, Modules 20): 2.45
  Ifih1 1426276_at (Group G1, Modules 20): 1.66
  Ifit1 1450783_at (Group G1, Modules 20): 2.63
  Ifit3 1449025_at (Group G1, Modules 20): 2.06
  Irf7 1417244_a_at (Group G1, Modules 20): 1.62
  Irgm1 1418825_at (Group G1, Modules 20): 2.14
  Mndal 1426906_at (Group G1, Modules 20): 2.19
  Pml 1448757_at (Group G1, Modules 20): 2.49
  Pml 1456103_at (Group G1, Modules 20): 1.62
  Rnf213 1455500_at (Group G1, Modules 20): 2.18
  Rsad2 1436058_at (Group G1, Modules 20): 1.75
  Shisa5 1423986_a_at (Group G1, Modules 20): 2.36
  Shisa5 1437503_a_at (Group G1, Modules 20): 2.09
  Stat1 1450033_a_at (Group G1, Modules 20): 2.85
  Stat1 1450034_at (Group G1, Modules 20): 2.26
  Tdrd7 1426716_at (Group G1, Modules 20): 2.5
  Tor1aip2 1418115_s_at (Group G1, Modules 20): 2.71
  Tor1aip2 1418116_at (Group G1, Modules 20): 2.68
  Tor1aip2 1435526_at (Group G1, Modules 20): 2.32
  Trim12a 1437432_a_at (Group G1, Modules 20): 1.61
  Uba7 1426970_a_at (Group G1, Modules 20): 1.91
z-score selected genes, TargetMine and IPA upstream cytokine analyses
  adjuvant group-associated biological features: strongly associated with type I and type II interferon responses
